Reference: patent US5010105A, “Antihypercholesterolemic compounds” (Merck & Co., Inc., priority 1990, dated 1991)

Tested on: HMG-CoA reductase
Test: intrinsic HMG-CoA reductase inhibition, in vitro protocol of J. Med. Chem., 28, p. 347-358 (1985)
Assay type: biochemical
Conditions: IC50 of test compound compared with compactin (mevastatin) determined simultaneously; compactin assigned a value of 100
Protocol: The intrinsic HMG-CoA reductase inhibition activity of the claimed compounds is measured in the in vitro protocol published in J. Med. Chem., 28, p. 347-358 (1985).
For estimation of relative inhibitory potencies, compactin (i.e., mevastatin) was assigned a value of 100 and the IC50 value of the test compound was compared with that of compactin determined simultaneously in the published in vitro protocol.

A relative potency of 186 was found for `CCC(C)(C)C(=O)O[C@H]1C[C@@H](C)C[C@]23C[C@H]2C(=O)[C@H](C)[C@H](CC[C@@H]2C[C@@H](O)CC(=O)O2)[C@@H]13` [Example 1, 6(R)-[2-[2(R),6(S)-dimethyl-8(S)-(2,2-dimethylbutyryloxy)-α-4,4a-methyleno-1,2,3,4,4a,5,6,7,8,8a(R)-decahydro-3-oxo-naphthyl-1(S)]ethyl]-4(R)-hydroxy-3,4,5,6-tetrahydro-2H-pyran-2-one] in this work.
